Data on two molecules can be found in patent US20260232678A1, “Nasal Spray for Phosphodiesterase Inhibitors” (Cyrano Therapeutics, Inc., priority 2022, published 2026).

Series [1] relates to phantosmia and phantogeusia. Kind of series: Treatment of phantosmia in a subject. The series is classed as in vivo. Particulars: thioridazine composition in nasal spray device, 3× daily in each naris.
From the text: A subject is admitted to a clinic for phantosmia and phantogeusia. The subject is prescribed a thioridazine composition in a nasal spray device described herein. The subject administers the nasal spray in an effective dose 3× daily in each naris. The nasal spray is characterized by a spray containing a D50 of about 15 μm to about 24 μm, a D90 of from about 30 μm to about 50 μm and where less than about 3% of the droplets in the plume of a spray have a size of less than about 10 μm.
The test system of series [2] is chemosensory dysfunction associated with Parkinson's disease. As to the kind of experiment: Treatment of Parkinson's disease chemosensory dysfunction. The format is in vivo, human. The conditions noted are these: about 0.4 ml per day of 3.1 mg/ml theophylline, nasal spray twice daily in each naris, 7 days. Here is the method:
An adult human subject was treated for chemosensory dysfunction associated with Parkinson's disease. […] The subject was administered about 0.4 ml per day of a liquid composition comprising theophylline at a concentration of 3.1 mg/ml in a nasal spray device described herein. The subject administered the nasal spray twice daily in each naris.

The conditions of series [3]: cited from earlier work.

The structures appear in SMILES notation.

For the molecule `CSc1ccc2c(c1)N(CCC1CCCCN1C)c1ccccc1S2` (stereo not shown) [thioridazine], in series [1], the “symptoms of the phantosmia and phantogeusia” value was “reduced symptoms”.
Regarding `Cn1c(=O)c2[nH]cnc2n(C)c1=O` [Theophylline, theophylline], in series [2], the “ability to taste and smell” value was “regained their ability to taste and smell”. The solubility in ethanol in series [3] (ethanol) is 14 to 15 mg/mL. The solubility in water in series [3] (water) is 7 to 8 mg/mL.
